In PubChem BioAssay AID1194 (EPA DSSTox, 2008) one finds outcome data, which are given here for 102 molecules.

This data set deals with Salmonella typhimurium Ames mutagenicity, literature compiled. As to the kind of experiment: DSSTox (CPDBAS) Carcinogenic Potency Database Salmonella Mutagenicity. An excerpt:
The Carcinogenic Potency Database (CPDB) is a unique and widely used international resource of the results of over 6500 chronic, long-term animal cancer tests on over 1500 chemical substances. The CPDB provides easy access to the bioassay literature, with qualitative and quantitative analyses of both positive and negative experiments that have been published over the past 50 years in the general literature and by the National Cancer Institute/National Toxicology Program. The CPDB standardizes the diverse literature of cancer bioassays that vary widely in protocol, histopathological examination and nomenclature, and in the published author's choices of what information to provide in their papers. Results are reported in the CPDB for tests in rats, mice, hamsters, dogs, and nonhuman primates, and are based on the most positive result among all experiments for each sex-species. The DSSTox CPDBAS (all species) file incorporates data from the CPDB Summary Tables for the full list of over 1500 chemical substances tested in at least one species.
A chemical is classified within the CPDB as mutagenic, i.e. "active", in the Salmonella assay if it was evaluated overall as either "mutagenic" or "weakly mutagenic" by Zeiger [Zeiger, E. (1997) Genotoxicity Database. In: Gold and Zeiger, Eds. Handbook of Carcinogenic Potency and Genotoxicity Databases. Boca Raton, FL: CRC Press, pp. 687-729. http://potency.berkeley.edu/CRCbook.html] or as overall "positive" by the EPA Gene-Tox Program [Kier et al. (1986) Mutat. Res. 168: 69-240].

Calls of active or inactive are those of the source.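 How the source made its calls: active means chemicals rated mutagenic or weakly mutagenic in the Salmonella bacterial test by one literature review, or positive overall by another; inconclusive means no clear call, values can overlap the other calls; inactive means the rest.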 Numbered stars: 1 amine (or outer) side, 2 acyl side, 3 side chain; on linkers, the order of the positions; unused ones are H or OH. Bridge positions count the residues as written; N and C are the ends. Square brackets hold non-standard residues; d marks the D form. Peptide text beside a SMILES is read from it. I, II: the chains in the order shown. Actinocin(9to1) = Cc1c2oc3c(C)ccc(C(=O)[*:1])c3nc-2c(C(=O)[*:2])c(N)c1=O; NMeV = CN[C@H](C(=O)O)C(C)C; Sar = CNCC(=O)O

Turning to `NNC(=O)c1ccncc1`, the outcome is “active; inactive”.
For `Cc1cc(O)c2c(c1)C(=O)c1cc(O)cc(O)c1C2=O`, the outcome was active.
Turning to `CC(=O)OC[C@]12C[C@H](OC(=O)CC(C)C)C(C)=C[C@H]1O[C@@H]1[C@H](O)[C@@H](OC(C)=O)[C@@]2(C)C12CO2` (some centres not stated), the outcome was inactive.
To `Cc1cc(Cl)ccc1N` belongs “inactive; active”.
On to `COc1ccc(C)cc1N`, for which the outcome was active.
Turning to `Clc1ccccc1Cl`, the result was inactive.
For `O=C1NC(=O)C(c2ccccc2)(c2ccccc2)N1` the value was “inactive”; for `FC(Cl)(Cl)Cl`, “inactive; active”.
On to `Cc1ccc2c(c1[N+](=O)[O-])C(=O)c1ccccc1C2=O`, for which the outcome was “active; inactive”.
Regarding `CN(C)N`, the result was active.
For `CCc1cc(C(N)=S)ccn1`, the outcome was “inactive; active”.
For the molecule `COC(=O)C1=CCCN(N=O)C1`, the result was active.
As to `ClC1=C(Cl)[C@]2(Cl)[C@@H]3[C@H]4C=CC(C4)[C@@H]3C1(Cl)C2(Cl)Cl`, the outcome is “inactive; active”.
As for `O=P(O)(O)O`, the outcome is “active; inactive”.
To `O=C1C2(Cl)C3(Cl)C4(Cl)C(Cl)(Cl)C5(Cl)C3(Cl)C1(Cl)C5(Cl)C24Cl` (configuration not stated) belongs “inactive; active”; to `O=C1CCc2ccccc2O1`, “inactive; active”.
For the molecule `OB(O)O`, the result was inactive.
To `COc1ccccc1[N+](=O)[O-]` belongs “active”; to `Cc1noc(NS(=O)(=O)c2ccc(N)cc2)c1C`, “inactive; active”; to `CN(C)c1ccccc1`, “inactive”.
Consider `O=C1NC(c2ccc([N+](=O)[O-])s2)Nc2ccccc21` (configuration not stated), for which the outcome was active.
Take `ClCCOCCCl`: the result was active.
Consider `CCC[CH2][Sn]([CH2]CCC)([CH2]CCC)[O][Sn]([CH2]CCC)([CH2]CCC)[CH2]CCC`, for which the result was inactive.
Turning to `O=C(O)/C=C/c1ccc(O)c(O)c1`, the outcome was inactive.
For `O=[N+]([O-])c1ccc(-c2nc(N(CCO)CCO)c3ccccc3n2)s1` the value was “inactive; active”.
On to `CCOC(=O)N(C)N=O`, for which the outcome was active.
`CC(C)=CCl`: the outcome is “active; inactive”.
Regarding `C[C@]12C=CC(=O)C=C1CC[C@@H]1[C@@H]2C(=O)C[C@@]2(C)[C@H]1CC[C@]2(O)C(=O)CO`, the outcome was active.
For `C=C(Cl)Cl`, the outcome is “active; inactive”.
Regarding `C=CCN=C=S`, the outcome was active.
On to `O=NN1CCNCC1`, for which the outcome was active.
In the case of `[Na+]`, the outcome was inactive.
As for `CN(CCCC(=O)O)N=O`, the outcome was inactive.
For `Nc1cc(Cl)c(N)c(Cl)c1` the value was “active”; for `COc1ccc(O)cc1`, “inactive; active”; for `CCC1CO1` (configuration not stated), “active”.
With `CCCC(Cl)CCC(Cl)CCC(Cl)CCC(Cl)CCC(Cl)CCC(Cl)CCC(C)Cl` (configuration not stated), the result was inactive.
To `[O]=[Mo](=[O])=[O]` belongs “inactive; active”; to `ClCC1CO1` (configuration not stated), “active; inactive”.
For `OCCOCCOCCO` the value was “active; inactive”; for `Oc1ccc2ccccc2c1N=Nc1ccccc1`, “active; inactive”; for `CCCCCCN(N=O)C(N)=O`, “active”.
In the case of `CCCCN(N=O)C(=N)N[N+](=O)[O-]`, the outcome was active.
`CCOC(=O)N(CC)N=O`: the outcome was “active; inactive”.
In the case of `Cc1cc2c(nc1N)[nH]c1ccccc12`, the outcome is “active; inactive”.
With `O=[N+]([O-])c1ccc(Oc2ccc(Cl)cc2Cl)cc1`, the result was active.
Consider `Cc1ncc[nH]1`, for which the result was inactive.
In the case of `COc1cc2c(c3oc4cccc(O)c4c(=O)c13)C1C=COC1O2` (configuration not stated), the outcome is “active; inactive”.
For `Cc1c2oc3c(C)ccc(C(=O)N[C@@H]4C(=O)N[C@H](C(C)C)C(=O)N5CCC[C@H]5C(=O)N(C)CC(=O)N(C)[C@@H](C(C)C)C(=O)O[C@@H]4C)c3nc-2c(C(=O)N[C@@H]2C(=O)N[C@H](C(C)C)C(=O)N3CCC[C@H]3C(=O)N(C)CC(=O)N(C)[C@@H](C(C)C)C(=O)O[C@@H]2C)c(N)c1=O` (I: T[dV]P[Sar][NMeV] / II: T[dV]P[Sar][NMeV]; ester I:1-I:C, II:1-II:C; linker I:N-II:N via Actinocin(9to1)) the value was “inactive; active”.
As for `Nc1c(Cl)cc([N+](=O)[O-])cc1Cl`, the result was active.
To `Cc1ccc(OP(=O)(Oc2ccc(C)cc2)Oc2ccc(C)cc2)cc1` belongs “inactive; active”; to `ClCC(Cl)CCl`, “active; inactive”.
To `ClC(Cl)C(Cl)(Cl)Cl` belongs “inactive”; to `O=C(O)COc1ccc(Cl)cc1Cl`, “inactive”.
In the case of `O=c1c(O)c(-c2ccc(O)cc2)oc2cc(O)cc(O)c12`, the outcome was active.
In the case of `NC(=O)/C(=C\c1ccc([N+](=O)[O-])o1)c1ccco1`, the result was active.
For the molecule `CC12CCC(CC1)C(C)(C)O2`, the outcome was “inactive; active”.
Consider `Nc1ncc([N+](=O)[O-])s1`, for which the outcome was active.
To `O=c1cc[nH]c(=O)[nH]1` belongs “inactive; active”; to `Nc1c(Cl)c(Cl)nc(C(=O)O)c1Cl`, “inactive; active”.
To `CCC[CH2][Sn]([CH2]CCC)([O]C(C)=O)[O]C(C)=O` belongs “inactive”; to `NC(=O)N(CC(=O)O)N=O`, “inactive”; to `CN1CCCC1=O`, “inactive; active”.
For `C=C(Cl)CSC(=S)N(CC)CC` the value was “active; inactive”; for `Nc1cc(S(=O)(=O)[O-])cc2cc(S(=O)(=O)[O-])c(N=Nc3ccc(-c4ccc(N=Nc5c(S(=O)(=O)[O-])cc6cc(S(=O)(=O)[O-])cc(N)c6c5O)c(O)c4)cc3O)c(O)c12.[Cu].[Cu].[Na+].[Na+].[Na+].[Na+]`, “inactive; active”.
Regarding `CC(=O)Nc1nnc(-c2ccc([N+](=O)[O-])o2)s1`, the result was active.
Regarding `ClC(Cl)Br`, the outcome was active.
Turning to `O=C1O[C@H]([C@@H](O)CO)C(O)=C1O`, the outcome was inactive.
For the molecule `CC1CN(N=O)CC(C)N1N=O` (configuration not stated), the outcome was active.
To `FC(F)(F)CCl` belongs “inactive”.
For `O=C1CCC(=O)O1` the value was “inactive; active”; for `NC(N)=NC(N)=NCCc1ccccc1`, “inactive; active”; for `O=C(OOC(=O)c1ccccc1)c1ccccc1`, “inactive; active”.
For `[Cl-].[Cl-].[Sn+2]` the value was “inactive”; for `CC(C)(Oc1ccc(C2CCCc3ccccc32)cc1)C(=O)O` (configuration not stated), “inactive”.
For `CCNC(=O)Nc1ncc([N+](=O)[O-])s1`, the outcome is “active; inactive”.
On to `CN(C)C(=S)SSC(=S)N(C)C`, for which the result was active.
As for `c1ccc(N=Nc2ccccc2)cc1`, the outcome was active.
As to `CNC[C@H](O)c1ccc(O)c(O)c1`, the outcome was “inactive; active”.
`ClC(Cl)=C(Cl)Cl`: the outcome is “inactive; active”.
For `CS(=O)(=O)OCCCCOS(C)(=O)=O` the value was “active”.
As for `NC(=O)N(CCO)N=O`, the result was active.
As for `CCCCCCCCCCCCN(C)N=O`, the result was active.
For the molecule `Cc1cc(=O)n(-c2ccccc2)n1C`, the outcome was “inactive; active”.
Turning to `CC1CN(N=O)CC(C)O1` (configuration not stated), the outcome was active.
For `O=[N+]([O-])c1ccc2ncccc2c1` the value was “active”; for `ClCCCl`, “active”; for `CC(N)=S`, “inactive; active”.
As for `CN(C)c1ccc(C(=N)c2ccc(N(C)C)cc2)cc1`, the result was active.
For `CCCC[N+](=O)[O-]` the value was “inactive; active”; for `O=C1c2ccccc2C(=O)c2ccccc21`, “active; inactive”; for `Cc1cccc2cccnc12`, “active”.
Turning to `Cc1c(N(C)C)c(=O)n(-c2ccccc2)n1C`, the outcome was active.
In the case of `Nc1ccc(-c2ccc(N)cc2)cc1`, the outcome was active.
`CC(I)C1OCC(CO)O1` (configuration not stated): the result was active.
`NS(=O)(=O)c1cc2c(cc1Cl)NCNS2(=O)=O`: the outcome was “inactive; active”.
As to `C[C@@H]1Cc2c(Cl)cc(C(=O)N[C@@H](Cc3ccccc3)C(=O)O)c(O)c2C(=O)O1`, the outcome was inactive.
To `CCCCOC(=O)c1ccccc1C(=O)OCc1ccccc1` belongs “inactive”; to `CCN(CC)C(=S)S[Te](SC(=S)N(CC)CC)(SC(=S)N(CC)CC)SC(=S)N(CC)CC`, “inactive”.
For `CCc1nc(N)nc(N)c1-c1ccc(Cl)cc1` the value was “inactive; active”.
As to `Nc1ccccc1C(=O)O`, the outcome was inactive.
Consider `CC(O)COC(C)(C)C` (configuration not stated), for which the outcome was “active; inactive”.
